US20140248383A1, “SLEEP QUALITY IMPROVING AGENT” (LION CORPORATION, priority 2011, published 2014)

System: male C57BL/6 mice
Assay: Measurement of amount of activity of mice (sleep inducing effect)
Type: in vivo
Description: When a sample has the function of inducing sleep, the amount of activity always decreases after administration of the sample. Therefore, the sleep inducing effect of each sample was evaluated by determining whether or not the administration of the sample solution to a mouse caused a reduction in the amount of activity.
8-Week old or 9-week old male C57BL/6 mice were purchased from Japan SLC, Inc. and acclimatized for 3 to 6 days. The amount of activity during acclimatization was used to divide the mice into administration groups. Immediately before the onset of the dark period, Fraxinus excelsior L. extract was orally administered in an amount of 3 g/kg per body weight of a mouse (Example 1-1), or a 0.5% by mass aqueous methyl cellulose solution was orally administered in an amount of 10 mL/kg per body weight of a mouse (Comparative Example 1-1), and the amount of activity was measured for 24 hours after administration. Each administration group included 8 mice (n=8).
The amount of activity was measured under the following conditions. The mice were raised in individual cages, and an infrared camera was disposed above each cage. The imaging range of the infrared camera was divided into 64 sections, and the number of occurrences that the mouse crossed a section was measured. The number of occurrences was collected every 30 minutes. […]

## O=C1c2c(O)cc(O)cc2O[C@H](c2ccc(O)c(O)c2)[C@H]1O [DIHYDROQUERCETIN, dihydroquercetin]
Dihydroquercetin 2.7 g/kg oral immediately before dark period, n=4
  cumulative amount of activity 6 hours after administration: 4700 number of occurrences/6 hours
Dihydroquercetin 2.7 g/kg oral, n=4, significant difference at p<0.01
  cumulative amount of activity 6 hours after administration compared to control solution: significantly lower
